Our source for the Ki values is US20040002493A1, “Benzoic acid derivatives and pharmaceutical agents comprising the same as active ingredient” (priority 2000, published 2004).

Assay in all cases: Binding assay using cell expressing the prostanoid receptor subtypes, [3H]-PGE2 competition on CHO membrane fraction
The target in one test is T1, EP4 receptor (Mus musculus, UniProt P32240).
T1 construct: expressed in transfected cells; host or cells: CHO cells
As to conditions: mouse EP4, [3H]-PGE2 2.5 nM, pH 6.0. How it is done:
(§1) (i) Binding Assay Using Cell Expressing the Prostanoid Receptor Subtypes
(§2) The preparation of membrane fraction was carried out according to the method of Sugimoto et al [J. Biol. Chem. 267, 6463-6466 (1992)], using CHO cell expressing prostanoid receptor subtypes (mouse EP1, EP2, EP3α, and EP4).
(§3) The standard assay mixture containing membrane fraction (50 μL), [^3H]-PGE2 in a final volume of 150 μL was incubated for 1 hour at room temperature. The reaction was terminated by addition of 3 mL of ice-cold buffer. The mixture was rapidly filtered through a glass filter (GF/B) under reduced pressure. The radioactivities associated with the filters were measured by liquid scintillation counter.
(§4) Kd and Bmax values were determined from Scatchard plots [Ann. N.Y. Acad. Sci. 51, 660(1949)]. Non-specific binding was determined as the amount bound in the presence of an excess (2.5 μM) of unlabeled PGE2. In the experiment for competition of specific [^3H]-PGE2 binding assay, [^3H]-PGE2 was added at a concentration of 2.5 nM and a test compound of the present invention was added at various concentrations. The following buffer was used in all reactions.
(§5) Buffer: 10 mM potassium phosphate (pH 6.0), 1 mM EDTA, 10 mM MgCl2, 0.1 M NaCl.
(§6) The inhibition constant (Ki) (μM) of each compound was calculated by the following equation.

The target of the next test is T2, EP3 receptor (Mus musculus, UniProt P30557).
T2 construct: expressed in transfected cells; host or cells: CHO cells
T2 sequence (P30557 1-365): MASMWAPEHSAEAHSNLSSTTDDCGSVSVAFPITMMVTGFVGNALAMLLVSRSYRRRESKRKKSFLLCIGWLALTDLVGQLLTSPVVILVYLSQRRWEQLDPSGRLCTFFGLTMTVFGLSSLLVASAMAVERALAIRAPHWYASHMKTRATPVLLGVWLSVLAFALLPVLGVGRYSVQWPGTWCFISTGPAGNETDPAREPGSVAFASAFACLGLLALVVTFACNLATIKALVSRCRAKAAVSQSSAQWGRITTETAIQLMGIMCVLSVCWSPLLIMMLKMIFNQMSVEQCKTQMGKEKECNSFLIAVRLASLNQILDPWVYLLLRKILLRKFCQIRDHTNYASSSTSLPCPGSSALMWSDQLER
As to conditions: mouse EP3α, [3H]-PGE2 2.5 nM, pH 6.0. As for the experimental part: as §1, §2, §3, §4, §5, §6

The target in the next test is T3, EP1 receptor (Mus musculus, UniProt P35375).
T3 construct: expressed in transfected cells; host or cells: CHO cells
T3 sequence (P35375 1-405): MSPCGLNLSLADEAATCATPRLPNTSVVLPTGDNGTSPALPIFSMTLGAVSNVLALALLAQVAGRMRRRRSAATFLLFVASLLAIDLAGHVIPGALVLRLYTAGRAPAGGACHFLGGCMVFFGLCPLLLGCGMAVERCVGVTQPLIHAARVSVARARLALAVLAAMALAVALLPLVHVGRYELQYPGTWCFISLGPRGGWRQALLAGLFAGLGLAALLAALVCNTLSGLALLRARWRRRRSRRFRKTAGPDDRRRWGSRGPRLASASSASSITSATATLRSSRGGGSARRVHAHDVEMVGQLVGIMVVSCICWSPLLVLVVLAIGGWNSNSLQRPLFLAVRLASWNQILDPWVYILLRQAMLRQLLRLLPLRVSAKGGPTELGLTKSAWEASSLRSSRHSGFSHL
As to conditions: mouse EP1, [3H]-PGE2 2.5 nM, pH 6.0. How it is done:
as §1, §2, §3, §4, §5, §6

Another test has as its target T4, EP2 receptor (Mus musculus, UniProt Q62053).
T4 construct: expressed in transfected cells; host or cells: CHO cells
The note with it: mouse EP2, [3H]-PGE2 2.5 nM, pH 6.0. How it is done: as §1, §2, §3, §4, §5, §6

T4 sequence (Q62053 whole entry): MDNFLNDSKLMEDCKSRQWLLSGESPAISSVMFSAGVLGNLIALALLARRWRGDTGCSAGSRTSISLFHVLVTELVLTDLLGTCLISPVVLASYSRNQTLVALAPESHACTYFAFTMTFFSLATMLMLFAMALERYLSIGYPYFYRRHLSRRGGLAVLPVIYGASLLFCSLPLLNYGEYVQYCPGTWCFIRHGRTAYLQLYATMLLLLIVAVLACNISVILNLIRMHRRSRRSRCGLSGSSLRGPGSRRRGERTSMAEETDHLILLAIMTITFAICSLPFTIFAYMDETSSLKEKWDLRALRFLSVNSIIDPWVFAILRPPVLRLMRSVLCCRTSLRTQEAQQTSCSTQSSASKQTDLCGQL
T1 sequence (P32240 whole entry): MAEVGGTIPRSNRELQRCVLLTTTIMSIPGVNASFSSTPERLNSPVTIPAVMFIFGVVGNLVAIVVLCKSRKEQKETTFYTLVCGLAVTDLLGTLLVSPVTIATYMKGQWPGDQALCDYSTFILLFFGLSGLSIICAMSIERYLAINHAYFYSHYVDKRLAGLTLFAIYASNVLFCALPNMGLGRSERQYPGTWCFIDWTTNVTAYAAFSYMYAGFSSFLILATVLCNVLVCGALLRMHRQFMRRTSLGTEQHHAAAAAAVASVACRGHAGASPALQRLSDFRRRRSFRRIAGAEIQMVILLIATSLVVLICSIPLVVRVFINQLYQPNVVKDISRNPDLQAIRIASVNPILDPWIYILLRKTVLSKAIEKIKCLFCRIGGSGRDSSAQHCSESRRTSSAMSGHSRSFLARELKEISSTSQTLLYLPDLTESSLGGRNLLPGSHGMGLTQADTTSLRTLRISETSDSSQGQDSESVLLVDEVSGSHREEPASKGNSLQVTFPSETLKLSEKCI

Take `CC(C(=O)Nc1ccccc1Cc1ccccc1C(=O)O)c1ccc(OCc2ccccc2)cc1` (stereo not shown) [2(1), 2-[2-[2-(4-Benzyloxyphenyl)propanoylamino]phenyl]methylbenzoic Acid]: the Ki (commonly a measure of affinity in units of concentration, obtained from inhibition or displacement) at EP4 receptor came out at 10 nM; at EP3 receptor, 60 nM; on EP1 receptor it was 1500 nM; at EP2 receptor, 8000 nM.
